In ChEMBL document CHEMBL5241066, “Research progress of MEK1/2 inhibitors and degraders in the treatment of cancer” (Eur J Med Chem, 2021):

Tested on: KE-37
Experiment: Anticancer activity against human KE-37 cells assessed as reduction in cell viability
Assay type: functional, cell-based

C=CCc1cccc(/C=N/NC(=O)CN2CCN(Cc3ccccc3)CC2)c1O [PAC-1]
IC50: 242 nM
